Literature values as cited in patent US7718642B2, “AIDS prophylactic lubricating composition” (priority 1993, dated 2010).

Columns and labels:
HIV [1] = conditions: used as contraceptive during sexual relations; J. Kreiss et al, JAMA 1992
[2] = previous studies (Int J STD & AIDS); read-out: CC50 value (50% toxic dose)
sperm cells = conditions: diffusion into cervical mucous
HIV [3] = test system: HIV
[4] = in vivo

Compound | Prevention of HIV transmission (HIV [1]) | Concentration that effectively destroys the envelope of viruses (viruses) | CC50 [2] | Concentration that restricts penetration of sperm cells and causes loss of mobility (sperm cells) | selectivity value (HIV [3]; CC50/IC50, previous studies (Int J STD & AIDS)) | IC50 (HIV [3]; previous studies (Int J STD & AIDS), read-out: IC50 value (50% inhibitory dose)) | Undesirable side effects [4]
nonoxynol-9 | did not prevent HIV transmission | – | – | – | – | – | –
[H]/N=C(\N/C(=N/[H])NCCCCCCNC(=N)NC(=N)Nc1ccc(Cl)cc1)Nc1ccc(Cl)cc1 [chlorhexidine] | – | above 0.1% | 1300 nM | above 0.1% | 5.2 | 250 nM | does not produce any undesirable side effects
